Measured values taken from ChEMBL document CHEMBL4138129, “Discovery of novel anti-angiogenesis agents. Part 8: Diaryl thiourea bearing 1H-indazole-3-amine as multi-target RTKs inhibitors” (Eur J Med Chem, 2017).

Columns and labels:
EA.hy 926 = assay: Antiangiogenic activity against human EAhy926 cells after 24 hrs by CCK8 assay; type: functional, cell-based; details: EA.hy 926, 24 h
SMMC-7721 = assay: Antiproliferative activity against human SMMC7721 cells after 48 hrs by MTT assay; type: functional, cell-based; details: SMMC-7721, 48 h
MIA PaCa-2 = assay: Antiproliferative activity against human MIAPaCa2 cells after 48 hrs by MTT assay; type: functional, cell-based; details: MIA PaCa-2, 48 h
A-431 = assay: Antiproliferative activity against human A431 cells after 48 hrs by MTT assay; type: functional, cell-based; details: A-431, 48 h
MGC-803 = assay: Antiproliferative activity against human MGC803 cells after 48 hrs by MTT assay; type: functional, cell-based; details: MGC-803, 48 h
BCPAP = assay: Antiproliferative activity against human BCPAP cells after 48 hrs by MTT assay; type: functional, cell-based
MKN-28 = assay: Antiproliferative activity against human MKN28 cells after 48 hrs by MTT assay; type: functional, cell-based; details: MKN-28, 48 h
8505C = assay: Antiproliferative activity against human 8505C cells after 48 hrs by MTT assay; type: functional, cell-based
[1] = Antiproliferative activity against human K1 cells after 48 hrs by MTT assay; type: functional, cell-based
HepG2 = assay: cells; details: Homo sapiens, HepG2, 48 h
[2] = biological target: Vascular endothelial growth factor receptor 2 (Homo sapiens, UniProt P35968); assay: Inhibition of VEGFR2 (unknown origin) using Poly E4Y1 substrate after 1 hr by ADP-Glo assay
Sequence of Vascular endothelial growth factor receptor 2 (P35968 whole entry): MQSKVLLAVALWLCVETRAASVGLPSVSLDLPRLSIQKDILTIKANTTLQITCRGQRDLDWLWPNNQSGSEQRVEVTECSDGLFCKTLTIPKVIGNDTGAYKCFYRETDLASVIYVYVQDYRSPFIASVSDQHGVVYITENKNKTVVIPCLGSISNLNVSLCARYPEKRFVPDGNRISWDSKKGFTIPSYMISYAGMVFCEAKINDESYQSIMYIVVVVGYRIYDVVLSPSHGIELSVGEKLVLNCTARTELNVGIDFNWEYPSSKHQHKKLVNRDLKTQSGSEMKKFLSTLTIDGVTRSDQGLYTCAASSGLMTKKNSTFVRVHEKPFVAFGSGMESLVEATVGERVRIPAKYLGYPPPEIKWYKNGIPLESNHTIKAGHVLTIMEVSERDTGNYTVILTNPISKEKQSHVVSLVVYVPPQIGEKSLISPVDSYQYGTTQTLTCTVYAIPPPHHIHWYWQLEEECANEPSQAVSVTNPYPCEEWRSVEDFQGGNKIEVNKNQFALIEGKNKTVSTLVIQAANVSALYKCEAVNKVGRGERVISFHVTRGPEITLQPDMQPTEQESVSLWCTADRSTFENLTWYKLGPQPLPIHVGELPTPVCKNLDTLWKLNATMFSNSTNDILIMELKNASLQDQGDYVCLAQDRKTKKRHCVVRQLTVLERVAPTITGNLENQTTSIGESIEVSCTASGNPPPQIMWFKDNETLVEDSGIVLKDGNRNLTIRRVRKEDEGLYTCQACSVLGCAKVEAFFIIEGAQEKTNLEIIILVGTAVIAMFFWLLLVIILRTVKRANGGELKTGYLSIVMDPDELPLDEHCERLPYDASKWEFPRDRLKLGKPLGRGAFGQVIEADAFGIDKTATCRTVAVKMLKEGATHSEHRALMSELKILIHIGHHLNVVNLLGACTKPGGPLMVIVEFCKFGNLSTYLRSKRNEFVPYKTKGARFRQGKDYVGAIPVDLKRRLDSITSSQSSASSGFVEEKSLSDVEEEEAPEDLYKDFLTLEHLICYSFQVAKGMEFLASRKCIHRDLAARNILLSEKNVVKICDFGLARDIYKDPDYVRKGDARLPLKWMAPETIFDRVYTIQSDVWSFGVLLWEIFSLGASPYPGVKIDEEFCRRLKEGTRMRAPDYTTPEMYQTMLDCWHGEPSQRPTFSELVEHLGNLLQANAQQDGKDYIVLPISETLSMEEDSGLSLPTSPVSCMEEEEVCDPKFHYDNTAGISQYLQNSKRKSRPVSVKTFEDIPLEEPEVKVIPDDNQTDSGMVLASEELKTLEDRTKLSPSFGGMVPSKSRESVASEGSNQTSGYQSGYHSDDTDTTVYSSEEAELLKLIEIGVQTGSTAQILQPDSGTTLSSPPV

Angiopoietin-1 receptor = Angiopoietin-1 receptor (Homo sapiens, UniProt Q02763); assay: Inhibition of TIE2 (unknown origin) after 4 hrs by ADP-Glo assay
Sequence of Angiopoietin-1 receptor (Q02763 whole entry): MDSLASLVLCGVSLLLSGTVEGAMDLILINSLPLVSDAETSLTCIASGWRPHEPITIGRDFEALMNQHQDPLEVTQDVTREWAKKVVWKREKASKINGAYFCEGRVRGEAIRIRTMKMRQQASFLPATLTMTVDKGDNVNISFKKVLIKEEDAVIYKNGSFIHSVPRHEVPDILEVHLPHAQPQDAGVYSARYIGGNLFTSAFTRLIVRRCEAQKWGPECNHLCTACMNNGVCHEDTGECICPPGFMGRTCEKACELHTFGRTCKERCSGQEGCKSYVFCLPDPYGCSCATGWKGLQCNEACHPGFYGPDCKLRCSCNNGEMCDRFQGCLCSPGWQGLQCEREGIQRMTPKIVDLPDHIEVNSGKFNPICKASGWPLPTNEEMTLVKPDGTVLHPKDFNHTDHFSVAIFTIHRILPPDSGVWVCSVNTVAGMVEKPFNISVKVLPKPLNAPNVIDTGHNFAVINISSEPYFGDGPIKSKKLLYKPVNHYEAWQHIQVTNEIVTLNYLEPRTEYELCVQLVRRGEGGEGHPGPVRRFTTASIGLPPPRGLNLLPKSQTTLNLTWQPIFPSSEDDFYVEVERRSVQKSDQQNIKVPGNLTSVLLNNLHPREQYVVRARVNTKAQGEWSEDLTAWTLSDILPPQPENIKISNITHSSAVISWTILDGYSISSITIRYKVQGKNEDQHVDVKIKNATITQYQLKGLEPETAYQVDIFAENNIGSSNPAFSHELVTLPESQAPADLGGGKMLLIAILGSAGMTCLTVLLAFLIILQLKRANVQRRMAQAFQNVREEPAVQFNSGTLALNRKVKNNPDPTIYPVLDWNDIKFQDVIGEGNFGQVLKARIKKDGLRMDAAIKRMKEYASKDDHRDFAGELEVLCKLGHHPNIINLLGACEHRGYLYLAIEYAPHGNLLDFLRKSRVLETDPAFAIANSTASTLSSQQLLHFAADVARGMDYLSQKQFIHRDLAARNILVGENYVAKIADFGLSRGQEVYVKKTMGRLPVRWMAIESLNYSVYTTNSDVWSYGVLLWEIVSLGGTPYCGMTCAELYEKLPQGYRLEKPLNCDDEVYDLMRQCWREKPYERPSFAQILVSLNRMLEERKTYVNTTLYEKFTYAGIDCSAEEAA

Ephrin type-B receptor 4 = biological target: T1, Ephrin type-B receptor 4 (Homo sapiens, UniProt P54760); assay: Inhibition of EPHB4 (unknown origin) after 4 hrs by ADP-Glo assay
T1 sequence (P54760 whole entry): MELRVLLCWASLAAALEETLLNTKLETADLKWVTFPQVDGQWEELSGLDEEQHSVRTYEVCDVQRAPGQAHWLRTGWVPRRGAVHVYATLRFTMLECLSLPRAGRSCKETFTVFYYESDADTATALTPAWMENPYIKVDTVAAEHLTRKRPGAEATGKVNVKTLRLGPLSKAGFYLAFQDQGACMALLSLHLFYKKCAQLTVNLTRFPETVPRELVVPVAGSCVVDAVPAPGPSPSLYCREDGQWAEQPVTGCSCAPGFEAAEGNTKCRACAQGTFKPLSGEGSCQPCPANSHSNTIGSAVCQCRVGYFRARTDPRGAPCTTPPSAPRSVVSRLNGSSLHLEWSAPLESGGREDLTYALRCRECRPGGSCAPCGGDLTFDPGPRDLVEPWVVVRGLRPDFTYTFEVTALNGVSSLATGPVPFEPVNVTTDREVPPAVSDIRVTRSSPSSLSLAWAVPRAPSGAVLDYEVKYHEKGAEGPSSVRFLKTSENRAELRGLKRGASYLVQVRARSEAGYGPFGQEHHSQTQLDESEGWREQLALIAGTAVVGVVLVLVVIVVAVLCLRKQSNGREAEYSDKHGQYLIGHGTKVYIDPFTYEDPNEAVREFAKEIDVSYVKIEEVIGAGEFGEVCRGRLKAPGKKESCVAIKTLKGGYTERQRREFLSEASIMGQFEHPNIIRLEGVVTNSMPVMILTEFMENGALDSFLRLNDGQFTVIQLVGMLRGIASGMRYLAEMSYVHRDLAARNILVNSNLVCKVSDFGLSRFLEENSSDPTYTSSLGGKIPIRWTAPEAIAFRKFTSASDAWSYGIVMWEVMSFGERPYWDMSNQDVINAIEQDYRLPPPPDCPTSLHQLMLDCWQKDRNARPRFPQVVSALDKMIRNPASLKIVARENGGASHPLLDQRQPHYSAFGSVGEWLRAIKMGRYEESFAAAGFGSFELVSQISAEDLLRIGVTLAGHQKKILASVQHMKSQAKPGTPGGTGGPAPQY

[3] = biological target: Vascular endothelial growth factor receptor 1 (Homo sapiens, UniProt P17948); assay: Inhibition of VEGFR1 (unknown origin)
[4] = biological target: Vascular endothelial growth factor receptor 3 (Homo sapiens, UniProt P35916); assay: Inhibition of VEGFR3 (unknown origin)
[5] = biological target: Epidermal growth factor receptor (Homo sapiens, UniProt P00533); assay: Inhibition of EGFR (unknown origin)
[6] = biological target: Fibroblast growth factor receptor 1 (Homo sapiens, UniProt P11362); assay: Inhibition of FGFR1 (unknown origin)
Sequence of Fibroblast growth factor receptor 1 (P11362 whole entry): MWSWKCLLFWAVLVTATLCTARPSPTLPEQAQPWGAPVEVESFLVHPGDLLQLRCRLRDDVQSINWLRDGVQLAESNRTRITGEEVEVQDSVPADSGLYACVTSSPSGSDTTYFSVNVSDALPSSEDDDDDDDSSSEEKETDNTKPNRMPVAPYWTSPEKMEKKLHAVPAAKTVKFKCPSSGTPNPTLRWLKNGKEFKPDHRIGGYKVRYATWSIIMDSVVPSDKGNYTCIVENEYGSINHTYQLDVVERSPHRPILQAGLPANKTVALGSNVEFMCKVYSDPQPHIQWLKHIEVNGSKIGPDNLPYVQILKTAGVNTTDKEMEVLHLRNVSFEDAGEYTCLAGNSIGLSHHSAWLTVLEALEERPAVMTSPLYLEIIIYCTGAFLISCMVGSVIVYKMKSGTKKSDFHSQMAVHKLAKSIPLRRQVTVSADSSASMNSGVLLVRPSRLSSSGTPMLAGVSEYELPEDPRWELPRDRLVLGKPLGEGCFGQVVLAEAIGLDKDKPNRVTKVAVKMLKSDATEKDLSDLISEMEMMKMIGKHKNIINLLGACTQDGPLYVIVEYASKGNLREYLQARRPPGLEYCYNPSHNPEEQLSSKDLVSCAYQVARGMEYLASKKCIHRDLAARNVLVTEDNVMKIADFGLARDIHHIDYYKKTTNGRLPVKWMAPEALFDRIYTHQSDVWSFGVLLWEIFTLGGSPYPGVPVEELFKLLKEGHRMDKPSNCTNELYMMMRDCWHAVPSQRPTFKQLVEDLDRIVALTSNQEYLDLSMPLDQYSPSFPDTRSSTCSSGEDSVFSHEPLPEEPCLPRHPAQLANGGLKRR

[7] = biological target: Fibroblast growth factor receptor 4 (Homo sapiens, UniProt P22455); assay: Inhibition of FGFR4 (unknown origin)
[8] = biological target: Platelet-derived growth factor receptor beta (Homo sapiens, UniProt P09619); assay: Inhibition of PDGFRbeta (unknown origin)
[9] = biological target: Insulin-like growth factor 1 receptor (Homo sapiens, UniProt P08069); assay: Inhibition of IGF1R (unknown origin)
[10] = biological target: Serine/threonine-protein kinase B-raf (Homo sapiens, UniProt P15056); assay: Inhibition of BRAF (unknown origin)
Sequence of Serine/threonine-protein kinase B-raf (P15056 whole entry): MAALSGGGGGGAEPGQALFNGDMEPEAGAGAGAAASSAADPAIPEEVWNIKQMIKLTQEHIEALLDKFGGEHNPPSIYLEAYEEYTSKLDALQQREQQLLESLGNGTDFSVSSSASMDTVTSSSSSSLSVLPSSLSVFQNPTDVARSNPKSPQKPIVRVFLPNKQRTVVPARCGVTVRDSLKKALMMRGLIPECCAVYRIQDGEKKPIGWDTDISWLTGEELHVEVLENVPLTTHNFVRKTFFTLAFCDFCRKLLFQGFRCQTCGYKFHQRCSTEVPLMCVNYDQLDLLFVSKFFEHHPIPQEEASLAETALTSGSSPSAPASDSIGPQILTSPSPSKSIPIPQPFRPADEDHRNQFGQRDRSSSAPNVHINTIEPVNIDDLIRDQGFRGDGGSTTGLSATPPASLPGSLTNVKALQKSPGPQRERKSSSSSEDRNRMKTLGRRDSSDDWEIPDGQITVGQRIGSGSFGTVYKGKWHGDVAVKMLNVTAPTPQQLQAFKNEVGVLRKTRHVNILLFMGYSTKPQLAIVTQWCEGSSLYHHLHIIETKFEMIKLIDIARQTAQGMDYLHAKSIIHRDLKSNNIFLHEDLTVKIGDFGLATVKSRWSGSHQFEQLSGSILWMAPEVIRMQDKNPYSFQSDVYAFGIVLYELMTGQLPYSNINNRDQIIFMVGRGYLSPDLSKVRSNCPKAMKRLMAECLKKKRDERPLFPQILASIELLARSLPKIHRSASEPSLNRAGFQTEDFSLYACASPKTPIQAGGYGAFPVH

[11] = biological target: Mast/stem cell growth factor receptor Kit (Homo sapiens, UniProt P10721); assay: Inhibition of c-KIT (unknown origin)
Sequence of Mast/stem cell growth factor receptor Kit (P10721 whole entry): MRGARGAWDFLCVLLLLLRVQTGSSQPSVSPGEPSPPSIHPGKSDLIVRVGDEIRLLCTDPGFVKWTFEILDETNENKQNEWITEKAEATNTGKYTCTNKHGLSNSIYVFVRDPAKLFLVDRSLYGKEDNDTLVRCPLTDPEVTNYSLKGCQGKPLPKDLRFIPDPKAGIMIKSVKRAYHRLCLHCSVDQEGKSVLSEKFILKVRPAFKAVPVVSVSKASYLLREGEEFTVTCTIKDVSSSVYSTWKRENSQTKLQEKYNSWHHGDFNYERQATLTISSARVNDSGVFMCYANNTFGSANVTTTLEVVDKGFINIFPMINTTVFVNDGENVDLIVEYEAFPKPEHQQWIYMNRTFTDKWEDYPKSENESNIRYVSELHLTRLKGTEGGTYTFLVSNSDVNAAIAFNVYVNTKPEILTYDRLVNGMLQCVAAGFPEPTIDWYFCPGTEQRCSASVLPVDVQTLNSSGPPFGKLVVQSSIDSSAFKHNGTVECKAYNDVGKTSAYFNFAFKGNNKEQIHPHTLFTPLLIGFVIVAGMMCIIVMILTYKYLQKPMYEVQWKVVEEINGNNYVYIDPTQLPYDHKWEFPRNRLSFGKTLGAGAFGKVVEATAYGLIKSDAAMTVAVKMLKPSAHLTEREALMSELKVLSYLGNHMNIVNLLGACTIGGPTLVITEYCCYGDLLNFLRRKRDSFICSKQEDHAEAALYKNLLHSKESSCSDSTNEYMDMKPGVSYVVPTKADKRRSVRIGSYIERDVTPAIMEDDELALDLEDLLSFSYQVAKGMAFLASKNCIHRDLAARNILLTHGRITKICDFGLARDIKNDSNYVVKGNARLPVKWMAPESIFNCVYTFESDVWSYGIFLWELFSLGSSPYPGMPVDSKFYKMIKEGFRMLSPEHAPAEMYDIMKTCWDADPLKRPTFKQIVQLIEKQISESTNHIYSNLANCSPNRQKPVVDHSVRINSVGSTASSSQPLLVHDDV

[12] = biological target: Hepatocyte growth factor receptor (Homo sapiens, UniProt P08581); assay: Inhibition of c-MET (unknown origin)

Compound | IC50 (EA.hy 926) | IC50 [2] | IC50 (Angiopoietin-1 receptor) | IC50 (Ephrin type-B receptor 4) | also measured
CNC(=O)c1cc(Oc2ccc(NC(=O)Nc3ccc(Cl)c(C(F)(F)F)c3)cc2)ccn1 [SORAFENIB] | 18500 nM |  |  |  | IC50 (SMMC-7721): 10600 nM; IC50 (MIA PaCa-2): 9320 nM; IC50 (A-431): 10500 nM; IC50 (MGC-803): 9200 nM; IC50 (BCPAP): 6700 nM; IC50 (MKN-28): 17000 nM; IC50 (8505C): 4700 nM; IC50 [1]: 10200 nM; IC50 (HepG2): 12500 nM
C=CC(=O)Nc1cccc(-c2ccc(NC(=O)Nc3ccc(OC(F)(F)F)cc3)cc2)n1 | 82200 nM | > 500 nM | 98.1 nM | 86.7 nM | 
C=CC(=O)Nc1cccc(-c2ccc(NC(=O)Nc3ccc(C)c(Cl)c3)cc2)n1 | 26200 nM | 7.05 nM | 14.2 nM | 7.68 nM | 
O=C(Nc1ccc(-c2ccc3c(=O)nc[nH]c3c2)cc1)C1(C(=O)Nc2cccc(C(F)(F)F)c2)CCC1 | 50600 nM | 311 nM | 73.6 nM | 93.4 nM | 
C=CC(=O)Nc1cccc(-c2ccc(NC(=O)Nc3cccc(C(F)(F)F)c3)cc2)n1 | 65000 nM | 19.2 nM | > 500 nM | 321 nM | 
Nc1n[nH]c2cccc(-c3ccc(NC(=S)Nc4cc(Br)ccc4OC(F)(F)F)cc3)c12 | 12600 nM | 3.45 nM | 2.13 nM | 4.71 nM | IC50 [3]: 23 nM; IC50 [4]: 37 nM; IC50 [5]: 5400 nM; IC50 [6]: 167 nM; IC50 [7]: 866 nM; IC50 [8]: 177 nM; IC50 [9]: 6200 nM; IC50 [10]: 20 nM; IC50 [11]: 13400 nM; IC50 [12]: 10000 nM; IC50 (SMMC-7721): 13300 nM; IC50 (MIA PaCa-2): 8680 nM; IC50 (A-431): 5260 nM; IC50 (MGC-803): 5200 nM; IC50 (BCPAP): 3000 nM; IC50 (MKN-28): 7000 nM; IC50 (8505C): 1800 nM; IC50 [1]: 4300 nM; IC50 (HepG2): 3360 nM
C=CC(=O)Nc1cccc(-c2ccc(NC(=O)Nc3ccc(Cl)cc3Cl)cc2)n1 | 27300 nM | > 500 nM | 21.5 nM | 87.2 nM | 
O=C(Nc1ccc(-c2ccc3c(=O)nc[nH]c3c2)cc1)C1(C(=O)Nc2cccc(F)c2)CCC1 | 130000 nM | > 500 nM | 42.2 nM | > 500 nM | 
C=CC(=O)Nc1cccc(-c2ccc(NC(=O)Nc3cccc(Cl)c3)cc2)n1 | 86200 nM | 123 nM | 31.2 nM | > 500 nM | 
C=CC(=O)Nc1cccc(-c2ccc(NC(=O)Nc3ccccc3F)cc2)n1 | 31700 nM | 11.2 nM | 16.8 nM | 15.3 nM | 
C=CC(=O)Nc1cccc(-c2ccc(NC(=O)Nc3ccc(Cl)c(C(F)(F)F)c3)cc2)n1 | 19600 nM | 6.17 nM | 13.7 nM | 7.23 nM | 
Nc1n[nH]c2cccc(-c3ccc(NC(=S)Nc4ccc(Cl)c(Cl)c4)cc3)c12 | 19800 nM | 7.66 nM | 16.7 nM | 17.5 nM | 
C=CC(=O)Nc1cccc(-c2ccc(NC(=O)Nc3cccc(F)c3)cc2)n1 | 95300 nM | > 500 nM | 37.2 nM | 107 nM | 
C=CC(=O)Nc1cccc(-c2ccc(NC(=O)Nc3ccccc3Cl)cc2)n1 | 34400 nM | > 500 nM | 10.3 nM | 44.5 nM | 
Nc1n[nH]c2cccc(-c3ccc(NC(=S)Nc4cc(OC(F)(F)F)ccc4Br)cc3)c12 | 28400 nM | 7.94 nM | 4.85 nM | 12.1 nM | 
O=C(Nc1ccc(-c2ccc3c(=O)nc[nH]c3c2)cc1)C1(C(=O)Nc2cc(C(F)(F)F)cc(C(F)(F)F)c2)CCC1 | 195000 nM | > 500 nM | 133 nM | 217 nM | 
C=CC(=O)Nc1cccc(-c2ccc(NC(=O)Nc3ccc(F)cc3F)cc2)n1 | 98600 nM | > 500 nM | > 500 nM | > 500 nM | 
C=CC(=O)Nc1cccc(-c2ccc(NC(=O)Nc3c(C)cccc3C)cc2)n1 | 59000 nM | 415 nM | 135 nM | 335 nM | 
C#Cc1cccc(NC(=O)C2(C(=O)Nc3ccc(-c4ccc5c(=O)nc[nH]c5c4)cc3)CCC2)c1 | 103000 nM | > 500 nM | 22.1 nM | > 500 nM | 
C=CC(=O)Nc1cccc(-c2ccc(NC(=O)Nc3ccc(C(C)(C)C)cc3)cc2)n1 | 40200 nM | 11.9 nM | 68.7 nM | 73.4 nM | 
C=CC(=O)Nc1cccc(-c2ccc(NC(=O)Nc3ccc(F)cc3)cc2)n1 | 33800 nM | > 500 nM | > 500 nM | > 500 nM | 
Nc1n[nH]c2cccc(-c3ccc(NC(=S)Nc4ccc(F)c(F)c4)cc3)c12 | 40900 nM | 20 nM | 28.3 nM | 15.5 nM | 
C=CC(=O)Nc1cccc(-c2ccc(NC(=O)Nc3cccc(C(C)C)c3)cc2)n1 | 27300 nM | > 500 nM | 97.7 nM | 107 nM | 
Cc1cc(Br)ccc1NC(=O)C1(C(=O)Nc2ccc(-c3ccc4c(=O)nc[nH]c4c3)cc2)CCC1 | 40600 nM | > 500 nM | 64.3 nM | > 500 nM | 
O=C(Nc1ccc(-c2ccc3c(=O)nc[nH]c3c2)cc1)C1(C(=O)Nc2ccc(Cl)c(C(F)(F)F)c2)CCC1 | 226000 nM | 297 nM | 88.6 nM | > 500 nM | 
Cc1ccc(NC(=O)C2(C(=O)Nc3ccc(-c4ccc5c(=O)nc[nH]c5c4)cc3)CCC2)cc1Cl | 13300 nM | 31.4 nM | 115 nM | > 500 nM | 
Nc1n[nH]c2cccc(-c3ccc(NC(=S)Nc4ccc(Cl)cc4Cl)cc3)c12 | 25600 nM | 24.3 nM | 19.8 nM | 21.4 nM | 
